From US9670208B2, “Serine/threonine kinase inhibitors” (Array BioPharma Inc., priority 2013, dated 2017)

What was measured:
[1] = tested on: PMA-stimulated P90RSK(Ser380) phosphorylation in HepG2 cells; experiment: Cellular P90RSK(Ser380) Phosphorylation Assay; type: cell-based; conditions: Homo sapiens, 1.5 hours compound incubation, PMA 100 ng/mL, normalized to GAPDH, single assay or mean of multiple assays, read-out: Biological Example 2 IC50
Procedure: Inhibition of PMA-stimulated P90RSK(Ser380) phosphorylation was determined by the following in vitro cellular mechanistic assay, which comprises incubating cells with a compound for 1.5 hours and quantifying fluorescent pP90RSK(Ser380) signal on fixed cells and normalizing to GAPDH signal.
HepG2 cells were obtained from ATCC (Manassas, Va.) and grown in DMEM supplemented with 10% fetal bovine serum. Cells were plated in 96-well plates at 35,000 cells/well and allowed to attach overnight at 37° C./5% CO2. Diluted compounds were then added at a final concentration of 0.5% DMSO. After 1.5 hours compound incubation, cells were stimulated with the addition of phorbol 12-myristate 13-acetate (“PMA”) at a final concentration of 100 ng/mL; the PMA stimulation was a 30-minute incubation at 37° C./5% CO2. After the 30-minute PMA stimulation, cells were washed with phosphate buffered saline (“PBS”) and fixed in 3.7% formaldehyde in PBS at room temperature for 15-20 minutes. This was followed by another wash in PBS and then permeabilization in 100% MeOH at room temperature for 10-15 minutes. Following the permeabilization incubation, cells were washed in PBS/0.05% Tween-20, followed by a block in Odyssey blocking buffer (LI-COR Biosciences) for at least 1 hour. Antibodies to phosphorylated P90RSK(Ser380) (Cell Signaling #9335, rabbit monoclonal) and GAPDH (Fitzgerald 10R-G109a, mouse monoclonal) were added to the cells and incubated overnight at 4° C. pP90RSK(Ser380) antibody was used at a 1:250 dilution; GAPDH was used at a 1:10,000 dilution. After washing with PBS/0.05% Tween-20, the cells were incubated with fluorescently-labeled secondary antibodies (Anti-rabbit-Alexa Flour680, Invitrogen Cat#A21109; Anti-mouse-IRDye800CW, Rockland Inc. Cat#610-131-121) for 1 hour. Both secondary antibodies were used at a 1:1000 dilution. Cells were then washed and analyzed for fluorescence at both wavelengths using the Odyssey Infrared Imaging System (LI-COR Biosciences). Phosphorylated P90RSK(Ser380) signal was normalized to GAPDH signal.

[2] = biological target: human ERK-2 (Mitogen Activated Kinase 1) (Homo sapiens (Human), UniProt P28482); experiment: ERK-2 Enzymatic Assay; type: biochemical; conditions: ERK-2 enzyme, 25 μM ATP; single assay or mean of multiple assays; read-out: Biological Example 1 IC50
Chain of human ERK-2 (Mitogen Activated Kinase 1) (P28482 8-360): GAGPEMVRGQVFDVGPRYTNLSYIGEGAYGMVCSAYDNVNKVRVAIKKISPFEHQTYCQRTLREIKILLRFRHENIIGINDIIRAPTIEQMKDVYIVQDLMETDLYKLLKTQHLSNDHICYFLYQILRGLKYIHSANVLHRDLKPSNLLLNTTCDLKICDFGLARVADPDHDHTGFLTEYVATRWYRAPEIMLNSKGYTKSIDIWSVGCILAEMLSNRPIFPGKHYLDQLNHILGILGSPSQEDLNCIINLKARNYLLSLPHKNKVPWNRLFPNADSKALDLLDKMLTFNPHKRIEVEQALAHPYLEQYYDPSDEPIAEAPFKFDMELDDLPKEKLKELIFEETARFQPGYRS

IC50 [2] [nM] | Structure (SMILES) | IC50 [1] [nM]
3.3 | Cn1nccc1Nc1cc(-c2ccn3c(CC4(C(F)(F)F)CC4)nnc3c2)ccn1 [Example 396, N-(1-methyl-1H-pyrazol-5-yl)-4-(3-((1-(trifluoromethyl)cyclopropyl)methyl)-[1,2,4]triazolo[4,3-a]pyridin-7-yl)pyridin-2-amine] | 35.4
6 | Cn1nccc1Nc1nccc(-c2ccn3c(C4OCCc5ccccc54)nnc3c2)n1 (stereo not drawn) [Example 192, 4-(3-(isochroman-1-yl)-[1,2,4]triazolo[4,3-a]pyridin-7-yl)-N-(1-methyl-1H-pyrazol-5-yl)pyrimidin-2-amine] | 37.5
0.9 | Cn1nccc1Nc1nccc(-c2ccn3c(CC4CCC(F)(F)CC4)nnc3c2)n1 [Example 317, 4-(3-((4,4-difluorocyclohexyl)methyl)-[1,2,4]triazolo[4,3-a]pyridin-7-yl)-N-(1-methyl-1H-pyrazol-5-yl)pyrimidin-2-amine] | 35.8
0.9 | COc1ccc(Cc2nnc3cc(-c4ccnc(NC5CCOCC5)n4)ccn23)cc1F [Example 403, 4-(3-(3-fluoro-4-methoxybenzyl)-[1,2,4]triazolo[4,3-a]pyridin-7-yl)-N-(tetrahydro-2H-pyran-4-yl)pyrimidin-2-amine] | 18.6
0.6 | Cn1nccc1Nc1cc(-c2ccn3c(CC(C)(C)C)nnc3c2)ccn1 [Example 279, N-(1-methyl-1H-pyrazol-5-yl)-4-(3-neopentyl-[1,2,4]triazolo[4,3-a]pyridin-7-yl)pyridin-2-amine] | 51.9
0.4 | Cn1nccc1Nc1cc(-c2ccn3c(CC4CC4)nnc3c2)ccn1 [Example 295, 4-(3-(cyclopropylmethyl)-[1,2,4]triazolo[4,3-a]pyridin-7-yl)-N-(1-methyl-1H-pyrazol-5-yl)pyridin-2-amine] | 117
0.9 | Cc1ccnc(Cc2nnc3cc(-c4ccnc(Nc5ccnn5C)n4)ccn23)c1 [Example 276, N-(1-methyl-1H-pyrazol-5-yl)-4-(3-((4-methylpyridin-2-yl)methyl)-[1,2,4]triazolo[4,3-a]pyridin-7-yl)pyrimidin-2-amine] | 51.7
1.5 | Cn1nccc1Nc1nccc(-c2ccn3c(Cc4cccc(-c5ccccc5)n4)nnc3c2)n1 [Example 275, N-(1-methyl-1H-pyrazol-5-yl)-4-(3-((6-phenylpyridin-2-yl)methyl)-[1,2,4]triazolo[4,3-a]pyridin-7-yl)pyrimidin-2-amine] | 20
24.9 | CO[C@@H](c1ccccc1)c1nnc2cc(-c3ccnc(NC4CCOCC4)n3)ccn12 [Example 195, (S)-4-(3-(methoxy(phenyl)methyl)-[1,2,4]triazolo[4,3-a]pyridin-7-yl)-N-(tetrahydro-2H-pyran-4-yl)pyrimidin-2-amine] | 39.7
11 | Cn1nccc1Nc1nccc(-c2ccn3cnnc3c2)n1 [Example 411, 4-([1,2,4]triazolo[4,3-a]pyridin-7-yl)-N-(1-methyl-1H-pyrazol-5-yl)pyrimidin-2-amine] | 607
3 | Fc1ccccc1Cc1nnc2cc(-c3ccnc(NC4CCOCC4)n3)ccn12 [Example 398, 4-(3-(2-fluorobenzyl)-[1,2,4]triazolo[4,3-a]pyridin-7-yl)-N-(tetrahydro-2H-pyran-4-yl)pyrimidin-2-amine] | 15.5
2.4 | Cn1nccc1Nc1nccc(-c2ccn3c(CC4CC5CCC4C5)nnc3c2)n1 (stereo not drawn) [Example 163, 4-(3-(bicyclo[2.2.1]heptan-2-ylmethyl)-[1,2,4]triazolo[4,3-a]pyridin-7-yl)-N-(1-methyl-1H-pyrazol-5-yl)pyrimidin-2-amine] | 20.7

More lines, now with the values behind:

Structure (SMILES) | IC50 [2] [nM] | IC50 [1] [nM]
CN1CC(Oc2c(F)cccc2F)CC(c2nnc3cc(-c4ccnc(Nc5ccnn5C)n4)ccn23)C1 (stereo not drawn) [Example 113, 4-(3-(5-(2,6-difluorophenoxy)-1-methylpiperidin-3-yl)-[1,2,4]triazolo[4,3-a]pyridin-7-yl)-N-(1-methyl-1H-pyrazol-5-yl)pyrimidin-2-amine] | 3.4 | 38
Cn1nccc1Nc1cc(-c2ccn3c(Cc4ccc(F)cc4F)nnc3c2)ccn1 [Example 84, 4-(3-(2,4-difluorobenzyl)-[1,2,4]triazolo[4,3-a]pyridin-7-yl)-N-(1-methyl-1H-pyrazol-5-yl)pyridin-2-amine] | 3.2 | 15.7
CC[C@H](C)Cc1nnc2cc(-c3ccnc(Nc4ccnn4C)n3)ccn12 [Example 115, (S)—N-(1-methyl-1H-pyrazol-5-yl)-4-(3-(2-methylbutyl)-[1,2,4]triazolo[4,3-a]pyridin-7-yl)pyrimidin-2-amine] | 2.8 | 8.3
c1cc(-c2ccn3c(C4CCCNC4)nnc3c2)nc(NC2CCOCC2)n1 (stereo not drawn) [Example 131, 4-(3-(piperidin-3-yl)-[1,2,4]triazolo[4,3-a]pyridin-7-yl)-N-(tetrahydro-2H-pyran-4-yl)pyrimidin-2-amine] | 224 | 2380
Fc1c(-c2ccnc(NC3CCOCC3)c2)ccn2c(Cc3ccc(Cl)cc3)nnc12 [Example 112, 4-(3-(4-chlorobenzyl)-8-fluoro-[1,2,4]triazolo[4,3-a]pyridin-7-yl)-N-(tetrahydro-2H-pyran-4-yl)pyridin-2-amine] | 17 | 862
Cn1nccc1Nc1nccc(-c2ccn3c(CC(C)(C)C)nnc3c2)n1 [Example 150, N-(1-methyl-1H-pyrazol-5-yl)-4-(3-neopentyl-[1,2,4]triazolo[4,3-a]pyridin-7-yl)pyrimidin-2-amine] | 2.8 | 39.2
COc1ccc(Cc2nnc3cc(-c4ccnc(Nc5ccnn5C)n4)ccn23)cc1F [Example 40, 4-(3-(3-fluoro-4-methoxybenzyl)-[1,2,4]triazolo[4,3-a]pyridin-7-yl)-N-(1-methyl-1H-pyrazol-5-yl)pyrimidin-2-amine] | 3.3 | 6.5
CCOCCc1nnc2cc(-c3ccnc(Nc4ccnn4C)n3)ccn12 [Example 111, 4-(3-(2-ethoxyethyl)-[1,2,4]triazolo[4,3-a]pyridin-7-yl)-N-(1-methyl-1H-pyrazol-5-yl)pyrimidin-2-amine] | 2.9 | 27.9
Cn1nccc1Nc1nccc(-c2ccn3c(Cc4cccc(Cl)c4Cl)nnc3c2)n1 [Example 57, 4-(3-(2,3-dichlorobenzyl)-[1,2,4]triazolo[4,3-a]pyridin-7-yl)-N-(1-methyl-1H-pyrazol-5-yl)pyrimidin-2-amine] | 0.5 | 4.6
